Results: patent US6737383B1, “Herbicidal oxadiazolidines” (priority 1999, dated 2004)

Key:
blackgrass = assay: Test B pre/postemergence blackgrass; assay type: in vivo, Alopecurus myosuroides; conditions: for Blackgrass plant response rating: Postemergence; for Plant response rating, Blackgrass: Preemergence
Procedure, shortened: (§1)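 Response is a visual 0-to-10 score relative to untreated plants, where 0 means no effect and 10 means complete control, taken twelve to sixteen days after application. Treatments went onto soil at planting and onto foliage of 1- to 4-leaf plants, using a surfactant-containing non-phytotoxic solvent.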

surinam grass = assay: Test B pre/postemergence surinam grass; assay type: in vivo, Brachiaria decumbens; conditions: for B. signalgrass plant response rating: Postemergence; for Plant response rating, B. signalgrass: Preemergence
Procedure, shortened: as §1

rape = assay: Test B pre/postemergence rape; assay type: in vivo, Brassica napus; conditions: for Rape plant response rating: Postemergence; for Plant response rating, Rape: Preemergence
Procedure, shortened: as §1

corn = assay: Test B pre/postemergence corn; assay type: in vivo, Zea mays; conditions: for Corn plant response rating: Postemergence; for Plant response rating, Corn: Preemergence
Procedure, shortened: as §1

velvetleaf = assay: Test B pre/postemergence velvetleaf; assay type: in vivo, Abutilon theophrasti; conditions: for Velvetleaf plant response rating: Postemergence; for Plant response rating, Velvetleaf: Preemergence
Procedure, shortened: as §1

purple nutsedge = assay: Test B pre/postemergence purple nutsedge; assay type: in vivo, Cyperus rotundus; conditions: for Nutsedge plant response rating: Postemergence; for Plant response rating, Nutsedge: Preemergence
Procedure, shortened: as §1

wild oat = assay: Test B pre/postemergence wild oat; assay type: in vivo, Avena fatua; conditions: for Wild oats plant response rating: Postemergence; for Plant response rating, Wild oats: Preemergence
Procedure, shortened: as §1

bedstraw = assay: Test B pre/postemergence bedstraw; assay type: in vivo, Galium aparine; conditions: Postemergence
Procedure, shortened: as §1

bamyardgrass = assay: Test B flood test barnyardgrass; assay type: in vivo, Echinochloa crus-galli
Procedure, shortened: (§2)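 Each value is a visual injury score relative to controls, with 10 meaning complete control and 0 no effect. Evaluation took place twelve to sixteen days after the 2-leaf-stage plants were treated and kept in the greenhouse.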

soybean = assay: Test B pre/postemergence soybean; assay type: in vivo, Glycine max; conditions: for Soybean plant response rating: Postemergence; for Plant response rating, Soybean: Preemergence
Procedure, shortened: as §1

pigweed = assay: Test B pre/postemergence pigweed; assay type: in vivo, Amaranthus retroflexus; conditions: for Redroot pigweed plant response rating: Postemergence; for Plant response rating, Redroot pigweed: Preemergence
Procedure, shortened: as §1

rice = assay: Test B flood test rice; assay type: in vivo, Oryza sativa
Procedure, shortened: as §2

crabgrass = assay: Test B pre/postemergence crabgrass; assay type: in vivo, Digitaria sanguinalis; conditions: for Crabgrass plant response rating: Postemergence; for Plant response rating, Crabgrass: Preemergence
Procedure, shortened: as §1

giant foxtail = assay: Test B pre/postemergence giant foxtail; assay type: in vivo, Setaria faberii; conditions: for Giant foxtail plant response rating: Postemergence; for Plant response rating, Giant foxtail: Preemergence
Procedure, shortened: as §1

cocklebur = assay: Test B pre/postemergence cocklebur; assay type: in vivo, Xanthium strumarium; conditions: for Cocklebur plant response rating: Postemergence; for Plant response rating, Cocklebur: Preemergence
Procedure, shortened: as §1

smallflower flatsedge = assay: Test B flood test smallflower flatsedge; assay type: in vivo, Cyperus difformis
Procedure, shortened: as §2

morningglory = assay: Test B pre/postemergence morningglory; assay type: in vivo, Ipomoea hederacea; conditions: for Morningglory plant response rating: Postemergence; for Plant response rating, Morningglory: Preemergence
Procedure, shortened: as §1

sugar beet = assay: Test B pre/postemergence sugar beet; assay type: in vivo, Beta vulgaris; conditions: for Sugarbeets plant response rating: Postemergence; for Plant response rating, Sugarbeets: Preemergence
Procedure, shortened: as §1

duck salad = assay: Test B flood test duck salad; assay type: in vivo, Heteranthera limosa
Procedure, shortened: as §2

wheat = assay: Test B pre/postemergence wheat; assay type: in vivo, Triticum aestivum; conditions: for Wheat plant response rating: Postemergence; for Plant response rating, Wheat: Preemergence
Procedure, shortened: as §1

[1] = Rate 125 g/ha, scale of 0 to 10 where 0 is no effect and 10 is complete control
[2] = Rate 1000 g/ha, scale 0 to 10 (0 no effect, 10 complete control)
[3] = Rate 250 g/ha, scale 0 to 10 (0 no effect, 10 complete control)
[4] = Rate 500 g/ha, scale of 0 to 10 where 0 is no effect and 10 is complete control
[5] = Rate 250 g/ha, scale 0 to 10, 0 is no effect, 10 is complete control
[6] = Rate 500 g/ha, scale 0 to 10, 0 is no effect, 10 is complete control
[7] = Pre-emergence, Rate 1000 g/ha, scale 0 to 10 (0 no effect, 10 complete control)
[8] = Rate 125 g/ha, under heading Pre-emergence, flood test species, visual evaluation after twelve to sixteen days
[9] = Rate 250 g/ha, Pre-emergence (flood test species), scale 0 to 10, 0 is no effect, 10 is complete control
[10] = Rate 500 g/ha, Pre-emergence section of Table B, 0 to 10 scale (0 no effect, 10 complete control)

COC(=O)C(CCO)n1c(=O)on(C(=O)N(c2ccc(Cl)cc2)C(C)C)c1=O (centres unmarked) [Compound 679]
Blackgrass plant response rating (blackgrass; [1]): 0 | Blackgrass plant response rating (blackgrass; [2]): 1 | Plant response rating, Blackgrass (blackgrass; [1]): 0 | Plant response rating, Blackgrass (blackgrass; [3]): 0 | Plant response rating, Blackgrass (blackgrass; [4]): 0 | Blackgrass plant response rating (blackgrass; [5]): 0 | Blackgrass plant response rating (blackgrass; [6]): 0 | Plant response rating, Blackgrass (blackgrass; [2]): 5 | B. signalgrass plant response rating (surinam grass; [1]): 0 | B. signalgrass plant response rating (surinam grass; [2]): 0 | Plant response rating, B. signalgrass (surinam grass; [1]): 0 | Plant response rating, B. signalgrass (surinam grass; [3]): 0 | Plant response rating, B. signalgrass (surinam grass; [4]): 0 | B. signalgrass plant response rating (surinam grass; [5]): 0 | B. signalgrass plant response rating (surinam grass; [6]): 0 | Plant response rating, B. signalgrass (surinam grass; [2]): 0 | Rape plant response rating (rape; [1]): 0 | Rape plant response rating (rape; [2]): 0 | Plant response rating, Rape (rape; [1]): 0 | Plant response rating, Rape (rape; [4]): 0 | Rape plant response rating (rape; [5]): 0 | Rape plant response rating (rape; [6]): 0 | Plant response rating, Rape (rape; [2]): 0 | Corn plant response rating (corn; [1]): 0 | Corn plant response rating (corn; [2]): 0 | Plant response rating, Corn (corn; [1]): 0 | Plant response rating, Corn (corn; [3]): 0 | Plant response rating, Corn (corn; [4]): 0 | Corn plant response rating (corn; [5]): 0 | Corn plant response rating (corn; [6]): 0 | Plant response rating, Corn (corn; [2]): 2 | Velvetleaf plant response rating (velvetleaf; [1]): 0 | Plant response rating, Velvetleaf (velvetleaf; [1]): 0 | Plant response rating, Velvetleaf (velvetleaf; [4]): 0 | Velvetleaf plant response rating (velvetleaf; [5]): 0 | Velvetleaf plant response rating (velvetleaf; [6]): 0 | Plant response rating, Velvetleaf (velvetleaf; [2]): 0 | Nutsedge plant response rating (purple nutsedge; [1]): 0 | Nutsedge plant response rating (purple nutsedge; [2]): 0 | Plant response rating, Nutsedge (purple nutsedge; [1]): 0 | Plant response rating, Nutsedge (purple nutsedge; [4]): 0 | Nutsedge plant response rating (purple nutsedge; [5]): 0 | Nutsedge plant response rating (purple nutsedge; [6]): 0 | Wild oats plant response rating (wild oat; [1]): 0 | Plant response rating, Wild oats (wild oat; [1]): 0 | Plant response rating, Wild oats (wild oat; [4]): 0 | Wild oats plant response rating (wild oat; [5]): 0 | Wild oats plant response rating (wild oat; [6]): 0 | Plant response rating, Wild oats (wild oat; [2]): 0 | Bedstraw plant response rating (bedstraw; [1]): 0 | Bedstraw plant response rating (bedstraw; [5]): 0 | Bedstraw plant response rating (bedstraw; [6]): 0 | Barnyardgrass plant response rating (bamyardgrass; [7]): 0 | Barnyardgrass plant response rating (0 to 10 scale, 0 is no effect, 10 is complete control) (bamyardgrass; [8]): 0 | Barnyardgrass plant response rating (bamyardgrass; [9]): 0 | Barnyardgrass plant response rating (bamyardgrass; [10]): 0 | Soybean plant response rating (soybean; [1]): 0 | Plant response rating, Soybean (soybean; [1]): 0 | Plant response rating, Soybean (soybean; [4]): 0 | Soybean plant response rating (soybean; [5]): 1 | Soybean plant response rating (soybean; [6]): 1 | Plant response rating, Soybean (soybean; [2]): 0 | Redroot pigweed plant response rating (pigweed; [1]): 0 | Redroot pigweed plant response rating (pigweed; [2]): 2 | Plant response rating, Redroot pigweed (pigweed; [1]): 0 | Plant response rating, Redroot pigweed (pigweed; [4]): 1 | Redroot pigweed plant response rating (pigweed; [5]): 0 | Redroot pigweed plant response rating (pigweed; [6]): 0 | Plant response rating, Redroot pigweed (pigweed; [2]): 6 | Rice plant response rating (rice; [7]): 0 | Rice plant response rating (0 to 10 scale, 0 is no effect, 10 is complete control) (rice; [8]): 0 | Rice plant response rating (rice; [9]): 0 | Rice plant response rating (rice; [10]): 0 | Crabgrass plant response rating (crabgrass; [1]): 0 | Crabgrass plant response rating (crabgrass; [2]): 2 | Plant response rating, Crabgrass (crabgrass; [1]): 0 | Plant response rating, Crabgrass (crabgrass; [3]): 0 | Plant response rating, Crabgrass (crabgrass; [4]): 1 | Crabgrass plant response rating (crabgrass; [5]): 0 | Plant response rating, Crabgrass (crabgrass; [2]): 3 | Giant foxtail plant response rating (giant foxtail; [1]): 0 | Giant foxtail plant response rating (giant foxtail; [2]): 5 | Plant response rating, Giant foxtail (giant foxtail; [1]): 0 | Plant response rating, Giant foxtail (giant foxtail; [4]): 8 | Giant foxtail plant response rating (giant foxtail; [5]): 0 | Giant foxtail plant response rating (giant foxtail; [6]): 4 | Plant response rating, Giant foxtail (giant foxtail; [2]): 8 | Cocklebur plant response rating (cocklebur; [1]): 0 | Cocklebur plant response rating (cocklebur; [2]): 1 | Plant response rating, Cocklebur (cocklebur; [1]): 0 | Plant response rating, Cocklebur (cocklebur; [3]): 0 | Plant response rating, Cocklebur (cocklebur; [4]): 0 | Cocklebur plant response rating (cocklebur; [5]): 0 | Cocklebur plant response rating (cocklebur; [6]): 0 | Plant response rating, Cocklebur (cocklebur; [2]): 0 | S. Flatsedge plant response rating (smallflower flatsedge; [7]): 0 | S. Flatsedge plant response rating (0 to 10 scale, 0 is no effect, 10 is complete control) (smallflower flatsedge; [8]): 0 | S. Flatsedge plant response rating (smallflower flatsedge; [9]): 0 | S. Flatsedge plant response rating (smallflower flatsedge; [10]): 0 | Morningglory plant response rating (morningglory; [1]): 0 | Morningglory plant response rating (morningglory; [2]): 2 | Plant response rating, Morningglory (morningglory; [1]): 0 | Plant response rating, Morningglory (morningglory; [4]): 0 | Morningglory plant response rating (morningglory; [5]): 0 | Morningglory plant response rating (morningglory; [6]): 2 | Plant response rating, Morningglory (morningglory; [2]): 0 | Sugarbeets plant response rating (sugar beet; [1]): 0 | Plant response rating, Sugarbeets (sugar beet; [1]): 0 | Plant response rating, Sugarbeets (sugar beet; [4]): 0 | Sugarbeets plant response rating (sugar beet; [5]): 0 | Sugarbeets plant response rating (sugar beet; [6]): 0 | Plant response rating, Sugarbeets (sugar beet; [2]): 0 | Ducksalad plant response rating (duck salad; [7]): 0 | Ducksalad plant response rating (0 to 10 scale, 0 is no effect, 10 is complete control) (duck salad; [8]): 0 | Ducksalad plant response rating (duck salad; [9]): 0 | Ducksalad plant response rating (duck salad; [10]): 0 | Wheat plant response rating (wheat; [1]): 0 | Plant response rating, Wheat (wheat; [1]): 0 | Plant response rating, Wheat (wheat; [4]): 0 | Wheat plant response rating (wheat; [5]): 0 | Wheat plant response rating (wheat; [6]): 0 | Plant response rating, Wheat (wheat; [2]): 0
